Reference: US12544370B2, “Methods for cancer therapy” (ASCENTAGE PHARMA (SUZHOU) CO., LTD., priority 2018, dated 2026)

Tested on: TKI-resistant patients with chronic phase (CP) or accelerated phase (AP) CML
Experiment: Phase I study, safety / treatment related adverse events (Example 1)
From the text: The eligible patients received treatments until disease progression or intolerable toxicities. The primary efficacy endpoint in the CML AP and CP patients, was complete hematological response (CHR) and major cytogenetic response (MCyR) respectively, MCyR includes partial cytogenetic response (PCyR) and complete cytogenetic response (CCyR). Blood samples were collected at various time points on Day 1-2 and Day 27-28 during cycle 1 for PK analyses.
• 3 to 6 subjects in each dose group (traditional 3+3 dose increasing method) • Up to 15 subjects in the MTD dose group (safety and PK characteristics) • Dose extension studies: • Up to 60 subjects (CP/CML-AP) • Extended dose selection is based on initial safety and efficacy Study Endpoints Primary Endpoint

[1] = Example 1, Table 1, 70 patients

Cc1ccc(C(=O)Nc2ccc(CN3CCN(C)CC3)c(C(F)(F)F)c2)cc1C#Cc1cnc2[nH]ncc2c1 [compound of formula (I-A), 3-(2-(1H-pyrazolo[3,4-b]pyridin-5-yl)ethynyl)-4-methyl-N-(4-((4-methylpiperazin-1-yl)methyl)-3-(trifluoromethyl)phenyl)-benzamide]
TRAE ALT increased, Any grade [1]: 15 (21%) n (%) | TRAE ALT increased, Grade 3-4 [1]: 0 n (%) | TRAE AST increased, Any grade [1]: 17 (24%) n (%) | TRAE AST increased, Grade 3-4 [1]: 0 n (%) | TRAE Anaemia, Any grade [1]: 6 (8.6%) n (%) | TRAE Anaemia, Grade 3-4 [1]: 5 (7.1%) n (%) | TRAE CPK increased, Any grade [1]: 18 (26%) n (%) | TRAE CPK increased, Grade 3-4 [1]: 1 (1.4%) n (%) | TRAE Creatinine increased, Any grade [1]: 4 (5.7%) n (%) | TRAE Creatinine increased, Grade 3-4 [1]: 0 n (%) | TRAE GGT increased, Any grade [1]: 10 (14%) n (%) | TRAE GGT increased, Grade 3-4 [1]: 0 n (%) | TRAE Hyperbilirubinemia, Any grade [1]: 20 (29%) n (%) | TRAE Hyperbilirubinemia, Grade 3-4 [1]: 0 n (%) | TRAE Hyperglycaemia, Any grade [1]: 5 (7.1%) n (%) | TRAE Hyperglycaemia, Grade 3-4 [1]: 0 n (%) | TRAE Hypertriglyceridaemia, Any grade [1]: 36 (51%) n (%) | TRAE Hypertriglyceridaemia, Grade 3-4 [1]: 2 (2.9%) n (%) | TRAE Hypocalcaemia, Any grade [1]: 25 (36%) n (%) | TRAE Hypocalcaemia, Grade 3-4 [1]: 0 n (%) | TRAE Hypokalaemia, Any grade [1]: 12 (17%) n (%) | TRAE Hypokalaemia, Grade 3-4 [1]: 0 n (%) | TRAE Hyponatraemia, Any grade [1]: 5 (7.1%) n (%) | TRAE Hyponatraemia, Grade 3-4 [1]: 0 n (%) | TRAE Leucocytopenia, Any grade [1]: 12 (17%) n (%) | TRAE Leucocytopenia, Grade 3-4 [1]: 12 (17%) n (%) | TRAE Myalgia, Any grade [1]: 11 (16%) n (%) | TRAE Myalgia, Grade 3-4 [1]: 0 n (%) | TRAE Pyrexia, Any grade [1]: 13 (19%) n (%) | TRAE Pyrexia, Grade 3-4 [1]: 4 (5.7%) n (%) | TRAE Rash, Any grade [1]: 9 (13%) n (%) | TRAE Rash, Grade 3-4 [1]: 0 n (%) | TRAE Skin hyperpigmentation, Any grade [1]: 17 (24%) n (%) | TRAE Skin hyperpigmentation, Grade 3-4 [1]: 0 n (%) | TRAE Skin mass, Any grade [1]: 6 (8.6%) n (%) | TRAE Skin mass, Grade 3-4 [1]: 0 n (%) | TRAE Thrombocytopenia, Any grade [1]: 35 (50%) n (%) | TRAE Thrombocytopenia, Grade 3-4 [1]: 35 (50%) n (%) | TRAEs Hematological, Any grade [1]: 36 (51%) n (%) | TRAEs Hematological, Grade 3-4 [1]: 36 (51%) n (%) | TRAEs Non-hematological, Any grade [1]: 67 (96%) n (%) | TRAEs Non-hematological, Grade 3-4 [1]: 11 (16%) n (%) | TRAEs Overall, Any grade [1]: 67 (96%) n (%) | TRAEs Overall, Grade 3-4 [1]: 44 (63%) n (%) | ALT increased leading to dose interruption/reduction (Example 1, 20 mg (n = 4)): 0 n (%) | AST increased leading to dose interruption/reduction (Example 1, 20 mg (n = 4)): 0 n (%) | Amylase increased leading to dose interruption/reduction (Example 1, 20 mg (n = 4)): 1(25%) n (%) | Anemia leading to dose interruption/reduction (Example 1, 20 mg (n = 4)): 0 n (%) | Atrial fibrillation leading to dose interruption/reduction (Example 1, 20 mg (n = 4)): 0 n (%) | Cardiomyopathy leading to dose interruption/reduction (Example 1, 20 mg (n = 4)): 0 n (%) | GGT increased leading to dose interruption/reduction (Example 1, 20 mg (n = 4)): 0 n (%) | Hyperkalemia leading to dose interruption/reduction (Example 1, 20 mg (n = 4)): 0 n (%) | Hypertriglyceridemia leading to dose interruption/reduction (Example 1, 20 mg (n = 4)): 0 n (%) | Hypocalcemia leading to dose interruption/reduction (Example 1, 20 mg (n = 4)): 0 n (%) | Lacunar infarction leading to dose interruption/reduction (Example 1, 20 mg (n = 4)): 0 n (%) | Lipase increased leading to dose interruption/reduction (Example 1, 20 mg (n = 4)): 0 n (%) | Thrombocytopenia leading to dose interruption/reduction (Example 1, 20 mg (n = 4)): 1(25%) n (%) | ALT increased leading to dose interruption/reduction (Example 1, 30 mg (n = 37)): 0 n (%) | AST increased leading to dose interruption/reduction (Example 1, 30 mg (n = 37)): 0 n (%) | Amylase increased leading to dose interruption/reduction (Example 1, 30 mg (n = 37)): 0 n (%) | Anemia leading to dose interruption/reduction (Example 1, 30 mg (n = 37)): 1 n | Anemia leading to dose interruption/reduction, percent of cohort (Example 1, 30 mg (n = 37)): (2.7%) | Atrial fibrillation leading to dose interruption/reduction (Example 1, 30 mg (n = 37)): 1 n | Atrial fibrillation leading to dose interruption/reduction, percent of cohort (Example 1, 30 mg (n = 37)): (2.7%) | Cardiomyopathy leading to dose interruption/reduction (Example 1, 30 mg (n = 37)): 0 n (%) | GGT increased leading to dose interruption/reduction (Example 1, 30 mg (n = 37)): 0 n (%) | Hyperkalemia leading to dose interruption/reduction (Example 1, 30 mg (n = 37)): 1 n | Hyperkalemia leading to dose interruption/reduction, percent of cohort (Example 1, 30 mg (n = 37)): (2.7%) | Hypertriglyceridemia leading to dose interruption/reduction (Example 1, 30 mg (n = 37)): 1 n | Hypertriglyceridemia leading to dose interruption/reduction, percent of cohort (Example 1, 30 mg (n = 37)): (2.7%) | Hypocalcemia leading to dose interruption/reduction (Example 1, 30 mg (n = 37)): 2 n | Hypocalcemia leading to dose interruption/reduction, percent of cohort (Example 1, 30 mg (n = 37)): (5.4%) | Lacunar infarction leading to dose interruption/reduction (Example 1, 30 mg (n = 37)): 0 n (%) | Lipase increased leading to dose interruption/reduction (Example 1, 30 mg (n = 37)): 0 n (%) | Thrombocytopenia leading to dose interruption/reduction (Example 1, 30 mg (n = 37)): 12 n | Thrombocytopenia leading to dose interruption/reduction, percent of cohort (Example 1, 30 mg (n = 37)): (32%) | ALT increased leading to dose interruption/reduction (Example 1, 40 mg (n = 37)): 1 n | ALT increased leading to dose interruption/reduction, percent of cohort (Example 1, 40 mg (n = 37)): (2.7%) | AST increased leading to dose interruption/reduction (Example 1, 40 mg (n = 37)): 1 n | AST increased leading to dose interruption/reduction, percent of cohort (Example 1, 40 mg (n = 37)): (2.7%) | Amylase increased leading to dose interruption/reduction (Example 1, 40 mg (n = 37)): 0 n (%) | Anemia leading to dose interruption/reduction (Example 1, 40 mg (n = 37)): 0 n (%) | Atrial fibrillation leading to dose interruption/reduction (Example 1, 40 mg (n = 37)): 0 n (%) | Cardiomyopathy leading to dose interruption/reduction (Example 1, 40 mg (n = 37)): 0 n (%) | GGT increased leading to dose interruption/reduction (Example 1, 40 mg (n = 37)): 1 n | GGT increased leading to dose interruption/reduction, percent of cohort (Example 1, 40 mg (n = 37)): (2.7%) | Hyperkalemia leading to dose interruption/reduction (Example 1, 40 mg (n = 37)): 0 n (%) | Hypertriglyceridemia leading to dose interruption/reduction (Example 1, 40 mg (n = 37)): 0 n (%) | Hypocalcemia leading to dose interruption/reduction (Example 1, 40 mg (n = 37)): 0 n (%) | Lacunar infarction leading to dose interruption/reduction (Example 1, 40 mg (n = 37)): 0 n (%) | Lipase increased leading to dose interruption/reduction (Example 1, 40 mg (n = 37)): 1 n
